Here are results for 43 molecules from US8637516B2 (IRM LLC, priority 2010, dated 2014).

pIC50: −log10 of the molar value. Some results are limits rather than exact numbers.

The test system of one assay is parental Ba/F3 cells. Nature of the assay: Proliferation of parental (untransformed, wt) Ba/F3 cells (BAF3/WT). The conditions noted are these: Mus musculus, Table 1, parental cells with IL3, 48 hours. The assay is classed as cell-based, murine. Here is the method: (§1) Compound dilutions were made in 384 well plates.
Compounds were tested for their ability to inhibit the proliferation of wt Ba/F3 cells and Ba/F3 cells transformed with constitutively expressed luciferase reporter and BCR-ABL or Tel-FMS or other Tel fusion kinases (EGFR, JAK2, ALK, BMX, FGFR3, FGFR4, FGR2, FLT1, FLT3, IGF1R, INSR, KDR, KIT, LCK, LYN, MEK, MET, PDGFRα, PDGFRβ, RET, RON, ROS, SRC, SYK, TIE and TYRO) or BRafV600E. Parental Ba/F3 cells were maintained in media containing recombinant mouse IL3 and the kinase transformed Ba/F3 cells were maintained in media without IL-3. 7.5 nl of compounds were spotted to each well of 1536-well assay plates by Liquid handling System Echo 555 (Labcyte). 700 cells were then plated into each well of the assay plates in 7 uL culture media per well and compounds were tested at 0.17 nM to 10 uM in 3-fold serial dilutions. The cells were then incubated for 48 hours at 37° C. 3 uL of Bright-Glo® (Promega) was added to each well and the plates were read using ViewLux (PerkinElmer).
(§2) The emited luminiscence is quantified using ViewLux (PerkinElmer).

Assay [1] has as its target T1, Ba/F3 cells transformed with human Tel-TrkA (Homo sapiens, UniProt P04629).
T1 construct: expressed in transfected cells; host or cells: Ba/F3 murine hematopoietic progenitor cells (luciferase expressing); the other entry of the earlier key: ETV6 (P41212, Transcription factor ETV6)
In words: Proliferation of Ba/F3 cells transformed with human Tel-TrkA (Ba/F3 Tel-TrkA). The assay is classed as cell-based. As to conditions: Table 1; 48 hours, Bright Glo luminescence; read-out: Ba/F3 Tel-TrkA.
From the text: as §1, §2

T1 sequence (P04629 510-796 limits assumed): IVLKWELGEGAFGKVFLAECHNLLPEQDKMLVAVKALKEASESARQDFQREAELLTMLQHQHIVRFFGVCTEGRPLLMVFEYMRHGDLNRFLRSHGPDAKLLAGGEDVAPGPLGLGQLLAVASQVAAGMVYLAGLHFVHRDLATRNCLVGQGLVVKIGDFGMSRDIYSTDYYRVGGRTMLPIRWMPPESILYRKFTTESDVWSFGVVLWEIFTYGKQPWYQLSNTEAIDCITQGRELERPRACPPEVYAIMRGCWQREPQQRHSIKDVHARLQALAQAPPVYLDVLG

Consider `CCOC(=O)c1cnc2ccc(N3CCC[C@@H]3c3cccc(F)c3)nn12` [X-158, (R)-ethyl 6-(2-(3-fluorophenyl)pyrrolidin-1-yl)imidazo[1,2-b]pyridazine-3-carboxylate], for which the pIC50 is under 5.00 in the assay with parental Ba/F3 cells and 7.03 in assay [1].
Take `CN(C)CCONC(=O)c1cnc2ccc(N3CCC[C@@H]3c3cccc(F)c3)nn12` [X-146]: the figures for the pIC50 (with parental Ba/F3 cells; in assay [1]) were under 5.00 and 6.52, respectively.
For the molecule `CN(C)CCNC(=O)c1cnc2ccc(N3CCC[C@@H]3c3cccc(F)c3)nn12` [X-56], the pIC50 in the assay on parental Ba/F3 cells is under 5.00; in assay [1] it was 6.17.
Turning to `NC(=O)c1cnc2ccc(N3CCOC[C@H]3c3cccc(F)c3)nn12` [X-17, (R)-6-(3-(3-fluorophenyl)morpholino)imidazo[1,2-b]pyridazine-3-carboxamide], the pIC50 was under 5.00 with parental Ba/F3 cells and 6.48 in assay [1].
For `O=C(NC1CCCCC1)c1cnc2ccc(N3CCC[C@@H]3c3cccc(F)c3)nn12` [X-49], the pIC50 in the assay with parental Ba/F3 cells was under 5.03; in assay [1], 7.66.
Consider `O=C(NCc1cccc(F)c1)c1cnc2ccc(N3CCC[C@@H]3c3cccc(F)c3)nn12` [X-74], for which the pIC50 was under 5.00 with parental Ba/F3 cells and 7.15 in assay [1].
For `CCNS(=O)(=O)c1cnc2ccc(N3CCC[C@@H]3c3cccc(F)c3)nn12` [X-237, (R)-N-ethyl-6-(2-(3-fluorophenyl)pyrrolidin-1-yl)imidazo[1,2-b]pyridazine-3-sulfonamide], in that order: under 5.00 and 5.48.
As for `CC(=O)OCC(=O)N1CCC(NC(=O)c2cnc3ccc(N4CCC[C@@H]4c4cccc(F)c4)nn23)CC1` [X-73, (R)-2-(4-(6-(2-(3-fluorophenyl)pyrrolidin-1-yl)imidazo[1,2-b]pyridazine-3-carboxamido)piperidin-1-yl)-2-oxoethyl acetate], the pIC50 is under 5.00 in the assay on parental Ba/F3 cells and 6.96 in assay [1].
For `CC(C)S(=O)(=O)N1CC[C@H](NC(=O)c2cnc3ccc(N4CCC[C@@H]4c4cccc(F)c4)nn23)C1` [X-31], in that order: under 5.00 and 6.91.
Regarding `COCC(=O)Nc1cnc2ccc(N3CCC[C@@H]3c3cccc(F)c3)nn12` [X-200], the pIC50 in the assay on parental Ba/F3 cells is under 5.05; in assay [1], 7.64.
Consider `O=C(NCc1nc2ccccc2s1)c1cnc2ccc(N3CCC[C@@H]3c3cccc(F)c3)nn12` [X-38], for which the results for the pIC50 (in the assay on parental Ba/F3 cells; in assay [1]) were under 5.00 and 6.71, respectively.
The like results for `CCOC(=O)c1cnc2ccc(N3C[C@H](F)C[C@H]3c3cccc(F)c3)nn12` [X-166, ethyl 6-((2S,4R)-4-fluoro-2-(3-fluorophenyl)pyrrolidin-1-yl)imidazo[1,2-b]pyridazine-3-carboxylate] were, in that order, under 5.00 and 6.50.
For `NCC(=O)Nc1cnc2ccc(N3CCC[C@@H]3c3cccc(F)c3)nn12` [X-193], the values for the pIC50 (in the assay with parental Ba/F3 cells; in assay [1]) were under 5.00 and 6.93, respectively.
Turning to `Fc1cccc([C@H]2CC(F)(F)CN2c2ccc3ncc(Br)n3n2)c1` [X-245, (R)-3-bromo-6-(4,4-difluoro-2-(3-fluorophenyl)pyrrolidin-1-yl)imidazo[1,2-b]pyridazine], the pIC50 in the assay on parental Ba/F3 cells is under 5.00; in assay [1], 7.36.
In the case of `NNC(=O)c1cnc2ccc(N3CCC[C@@H]3c3cccc(F)c3)nn12` [X-155], the results for the pIC50 (in the assay on parental Ba/F3 cells; in assay [1]) were under 5.00 and 6.62, respectively.
Regarding `CCOC(=O)c1cnc2ccc(N3C[C@@H](F)C[C@@H]3c3ccc(F)c(F)c3)nn12` [X-239], the pIC50 is under 5.00 in the assay on parental Ba/F3 cells and 6.71 in assay [1].
In the case of `NC(=O)c1cnc2ccc(N3CC=C[C@@H]3c3cccc(F)c3)nn12` [X-15, (R)-6-(2-(3-fluorophenyl)-2,5-dihydro-1H-pyrrol-1-yl)imidazo[1,2-b]pyridazine-3-carboxamide], the results for the pIC50 (in the assay with parental Ba/F3 cells; in assay [1]) were 5.14 and 7.89, respectively.
Regarding `CS(=O)(=O)N1CC[C@H](NC(=O)c2cnc3ccc(N4CCC[C@@H]4c4cccc(F)c4)nn23)C1` [X-30], the results for the pIC50 (with parental Ba/F3 cells; in assay [1]) were under 5.00 and 7.51, respectively.
As to `CC(=O)N1CCC(NC(=O)c2cnc3ccc(N4CCC[C@@H]4c4cccc(F)c4)nn23)CC1` [X-67], the pIC50 with parental Ba/F3 cells was under 5.00; in assay [1], 7.09.
With `N#Cc1cnc2ccc(N3CCC[C@@H]3c3cccc(F)c3)nn12` [X-2, (R)-6-(2-(3-fluorophenyl)pyrrolidin-1-yl)imidazo[1,2-b]pyridazine-3-carbonitrile], the values for the pIC50 (in the assay with parental Ba/F3 cells; in assay [1]) were under 5.00 and 6.57, respectively.
Consider `CCOC(=O)Nc1cnc2ccc(N3CCC[C@@H]3c3cccc(F)c3)nn12` [X-236, (R)-ethyl 6-(2-(3-fluorophenyl)pyrrolidin-1-yl)imidazo[1,2-b]pyridazin-3-ylcarbamate], for which the pIC50 in the assay with parental Ba/F3 cells is under 5.00; in assay [1], 6.26.
The like results for `CCOCC(=O)Nc1cnc2ccc(N3CCC[C@@H]3c3cccc(F)c3)nn12` [X-168, (R)-2-ethoxy-N-(6-(2-(3-fluorophenyl)pyrrolidin-1-yl)imidazo[1,2-b]pyridazin-3-yl)acetamide] were, in that order, under 5.00 and 7.77.
For the molecule `CNC(=O)c1cnc2ccc(N3CCC[C@@H]3c3cccc(F)c3)nn12` [X-43], the figures for the pIC50 (with parental Ba/F3 cells; in assay [1]) were under 5.00 and 7.34, respectively.
With `NC(=O)c1cnc2ccc(N3CCOCC3c3cccc(F)c3)nn12` (racemic) [X-16, 6-(3-(3-fluorophenyl)morpholino)imidazo[1,2-b]pyridazine-3-carboxamide], the pIC50 was under 5.00 in the assay on parental Ba/F3 cells and 6.21 in assay [1].
The like results for `CC(C)C[C@H](CO)NC(=O)c1cnc2ccc(N3CCC[C@@H]3c3cccc(F)c3)nn12` [X-107] were, in that order, under 5.00 and 7.40.
In the case of `CS(=O)(=O)N1CC(NC(=O)c2cnc3ccc(N4CCC[C@@H]4c4cccc(F)c4)nn23)C1` [X-68], the pIC50 was under 5.00 in the assay on parental Ba/F3 cells and 7.42 in assay [1].
Take `COC(=O)Nc1cnc2ccc(N3CCC[C@@H]3c3cccc(F)c3)nn12` [X-235]: the values for the pIC50 (in the assay with parental Ba/F3 cells; in assay [1]) were under 5.00 and 6.23, respectively.
`CCN(CC)CCCNC(=O)c1cnc2ccc(N3CCC[C@H]3c3cccc(F)c3)nn12` [X-40]: the pIC50 with parental Ba/F3 cells was under 5.00; in assay [1], 6.02.
For `NCC(=O)Nc1cnc2ccc(N3CC(F)(F)C[C@@H]3c3cccc(F)c3)nn12` [X-204, (R)-2-amino-N-(6-(4,4-difluoro-2-(3-fluorophenyl)pyrrolidin-1-yl)imidazo[1,2-b]pyridazin-3-yl)acetamide], in that order: under 5.00 and 7.55.
Turning to `O=C(NCC(F)(F)F)c1cnc2ccc(N3CCCC3c3cccc(F)c3)nn12` (centres unmarked) [X-111], the pIC50 was under 5.00 in the assay with parental Ba/F3 cells and 7.89 in assay [1].
As to `N#Cc1ccc(CNC(=O)c2cnc3ccc(N4CCC[C@@H]4c4cccc(F)c4)nn23)cc1` [X-89], the figures for the pIC50 (in the assay on parental Ba/F3 cells; in assay [1]) were under 5.00 and 6.79, respectively.
Take `O=C(NCc1ccc(N2CC[C@@H](O)C2)nc1)c1cnc2ccc(N3CCC[C@@H]3c3cccc(F)c3)nn12` [X-99]: the pIC50 is under 5.00 with parental Ba/F3 cells and 6.14 in assay [1].
As to `CC(=O)N1CC(NC(=O)c2cnc3ccc(N4CCC[C@@H]4c4cccc(F)c4)nn23)C1` [X-64], the pIC50 was under 5.00 with parental Ba/F3 cells and 6.08 in assay [1].
Regarding `CCOC(=O)c1cnc2ccc(N3CCCCC3c3cccc(F)c3)nn12` (centres unmarked) [X-156, ethyl 6-(2-(3-fluorophenyl)piperidin-1-yl)imidazo[1,2-b]pyridazine-3-carboxylate], the results for the pIC50 (in the assay on parental Ba/F3 cells; in assay [1]) were under 5.00 and 7.03, respectively.
For the molecule `CONC(=O)c1cnc2ccc(N3CCC[C@@H]3c3cccc(F)c3)nn12` [X-151], the pIC50 in the assay on parental Ba/F3 cells was under 5.00; in assay [1] it was 7.35.
The like results for `O=C(NCCC1CCCCC1)c1cnc2ccc(N3CCC[C@@H]3c3cccc(F)c3)nn12` [X-91] were, in that order, 5.21 and 6.54.
With `O=C(NCC(F)(F)F)c1cnc2ccc(N3CCC[C@@H]3c3cccc(F)c3)nn12` [X-53], the results for the pIC50 (in the assay with parental Ba/F3 cells; in assay [1]) were under 5.00 and 8.52, respectively.
As to `O=C(NCc1ccc(F)cc1)c1cnc2ccc(N3CCCC3c3cccc(F)c3)nn12` (centres unmarked) [X-24], the pIC50 in the assay on parental Ba/F3 cells was under 5.00; in assay [1], 6.63.
In the case of `NC(=O)c1cnc2ccc(N3CCCCC3c3cccc(F)c3)nn12` (centres unmarked) [X-18], the pIC50 in the assay on parental Ba/F3 cells is under 5.00; in assay [1] it was 7.57.
For the molecule `O=C(NCCC1CCCC1)c1cnc2ccc(N3CCC[C@@H]3c3cccc(F)c3)nn12` [X-108], the pIC50 in the assay on parental Ba/F3 cells was 5.19; in assay [1] it was 6.72.
For `CN1CCN(NC(=O)c2cnc3ccc(N4CCC[C@@H]4c4cccc(F)c4)nn23)CC1` [X-154, (R)-6-(2-(3-fluorophenyl)pyrrolidin-1-yl)-N-(4-methylpiperazin-1-yl)imidazo[1,2-b]pyridazine-3-carboxamide], the pIC50 with parental Ba/F3 cells is under 5.00; in assay [1], 6.82.
`O=C(NOCC1CC1)c1cnc2ccc(N3CCC[C@@H]3c3cccc(F)c3)nn12` [X-143]: the pIC50 in the assay on parental Ba/F3 cells is under 5.00; in assay [1], 7.35.
As to `CC(C)(C)OC(=O)N1CC[C@@H](NC(=O)c2cnc3ccc(N4CCC[C@@H]4c4cccc(F)c4)nn23)C1` [X-62], the pIC50 in the assay on parental Ba/F3 cells was under 5.00; in assay [1], 6.04.
